Source: patent publication US20250122160A1, “PROTEIN TYROSINE PHOSPHATASE INHIBITORS AND METHODS OF USE THEREOF” (Calico Life Sciences LLC, priority 0001, published 2025)
pIC50: −log10 of the molar value.

Legend:
[1] = biological target: T1, His tagged PTPN2 (TC45) protein (Homo sapiens, UniProt P17706); experiment: Mobility shift assay (MSA) to determine potency of PTPN2 inhibitors; format: biochemical; settings: 0.5 nM enzyme, 2 μM substrate
T1 construct: made in house
T1 sequence (P17706 with tags, fused parts or gaps isoform P17706-2): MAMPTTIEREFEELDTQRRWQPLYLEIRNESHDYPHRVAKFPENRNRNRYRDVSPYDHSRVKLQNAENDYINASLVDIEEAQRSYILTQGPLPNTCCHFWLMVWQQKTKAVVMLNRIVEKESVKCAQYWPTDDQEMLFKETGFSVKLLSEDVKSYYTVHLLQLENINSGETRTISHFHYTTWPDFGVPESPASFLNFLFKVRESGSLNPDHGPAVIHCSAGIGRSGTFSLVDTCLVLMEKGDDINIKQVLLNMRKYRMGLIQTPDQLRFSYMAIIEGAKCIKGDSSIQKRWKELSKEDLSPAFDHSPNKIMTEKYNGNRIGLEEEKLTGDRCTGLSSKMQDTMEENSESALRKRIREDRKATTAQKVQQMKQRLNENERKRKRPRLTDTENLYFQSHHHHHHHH
Procedure: Compound activity was determined using in house His tagged PTPN2 (TC45) protein (SEQ ID NO: 1) in an in vitro enzymatic reaction. The enzymatic assay used to determine activity was a mobility shift assay using a LabChip EZ Reader by Caliper Life Sciences. The enzymatic reaction was carried out in assay buffer (50 mM HEPES pH 7.5, 1 mM EGTA, 10 mM EDTA, 0.01% Tween® 20, and 2 mM DTT). The compounds were dispensed on a white 384 well ProxiPlate™ (PerkinElmer Catalog #6008289) plate using the Labcyte Echo at varying concentrations (12 point, 1:3 dilution). The enzyme (at 0.5 nM) was incubated with compound for 10 minutes at room temperature. Then the substrate (phosphorylated insulin receptor probe sequence: ((OG488)-(NH—CH2—CH2—O—CH2—CH2—O—CH2—CO)-T-R-D-I-(PY)-E-T-D-Y—Y—R—K—K—NH2) (SEQ ID NO: 2) was added at 2 μM to the plates and incubated for another 10 minutes at room temperature. Finally, a quench solution (water and 4-bromo-3-(2-oxo-2-propoxyethoxy)-5-(3-{[1-(phenylmethanesulfonyl)piperidin-4-yl]amino}phenyl)thiophene-2-carboxylic acid) was added to the plates, which were then run on the EZ Reader (excitation 488 nm, emission 530 nm) to measure % conversion (the amount of phosphorylated substrate which was de-phosphorylated by PTPN2). […] The % inhibition was then used to calculate the IC50 values.

[2] = biological target: T2, His tagged full-length PTPN1 protein (Homo sapiens, UniProt P18031); experiment: Mobility shift assay (MSA) to determine potency of PTPN1 inhibitors; format: biochemical; settings: 0.5 nM enzyme, 2 μM substrate
T2 construct: made in house
T2 sequence (P18031 with tags, fused parts or gaps): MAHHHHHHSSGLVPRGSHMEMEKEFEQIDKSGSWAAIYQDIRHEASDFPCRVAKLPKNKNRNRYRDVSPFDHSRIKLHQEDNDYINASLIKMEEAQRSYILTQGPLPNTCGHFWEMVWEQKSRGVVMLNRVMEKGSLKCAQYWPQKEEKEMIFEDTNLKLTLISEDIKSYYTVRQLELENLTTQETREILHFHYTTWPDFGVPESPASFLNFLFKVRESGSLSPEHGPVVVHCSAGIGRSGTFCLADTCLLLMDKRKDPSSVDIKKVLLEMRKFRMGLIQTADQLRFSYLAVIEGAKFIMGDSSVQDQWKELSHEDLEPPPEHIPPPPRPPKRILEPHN
Procedure: Compound activity was determined using in house His tagged full-length PTPN1 protein (SEQ ID NO: 3) in an in vitro enzymatic reaction. The enzymatic assay used to determine activity is a mobility shift assay using a LabChip EZ Reader by Caliper Life Sciences. The enzymatic reaction was carried out in assay buffer (50 mM HEPES pH 7.5, 1 mM EGTA, 10 mM EDTA. 0.01% Tween® 20, and 2 mM DTT). The compounds were dispensed on a white 384 well ProxiPlate™ (PerkinElmer Cat #6008289) plate using a Labcyte Echo® liquid handler at varying concentrations (12 point, 1:3 dilution). The enzyme (at 0.5 nM) was incubated with compound for 10 minutes at room temperature. Then the substrate (phosphorylated insulin receptor probe sequence: ((OG488)-(NH—CH2—CH2—O—CH2—CH2—O—CH2—CO)-T-R-D-I-(PY)-E-T-D-Y—Y—R—K—K—NH2) (SEQ ID NO: 2) was added at 2 μM to the plates and incubated for another 10 minutes at room temperature. Finally, a quench solution (water and 4-bromo-3-(2-oxo-2-propoxyethoxy)-5-(3-{[1-(phenylmethanesulfonyl)piperidin-4-yl]amino}phenyl)thiophene-2-carboxylic acid) was added to the plates, which were then run on the EZ Reader (excitation 488 nm, emission 530 nm) to measure % conversion (the amount of phosphorylated substrate which was de-phosphorylated by PTPN1). […] The % inhibition was then used to calculate the IC50 values.

pIC50 [2]	Structure (SMILES)	pIC50 [1]
7.00 to 8.00	CC(C)CCCN1CCc2cc(O)c(N3CC(=O)NS3(=O)=O)c(F)c2C1 [Compound 145]	7.00 to 8.00
7.00 to 8.00	O=C1CN(c2c(O)cc3c(c2F)CN(CCCCC(F)(F)F)CC3)S(=O)(=O)N1 [Compound 153, 5-[8-fluoro-6-hydroxy-2-(5,5,5-trifluoropentyl)-1,2,3,4-tetrahydroisoquinolin-7-yl]-1λ^6,2,5-thiadiazolidine-1,1,3-trione]	7.00 to 8.00
7.00 to 8.00	O=C1CN(c2c(O)cc3c(c2F)CN(CCCC2CC2)CC3)S(=O)(=O)N1 [Compound 159]	7.00 to 8.00
7.00 to 8.00	O=C1CN(c2c(O)cc3c(c2F)CN(C2CC4(CNC4)C2)CC3)S(=O)(=O)N1 [Compound 160]	7.00 to 8.00
7.00 to 8.00	O=C1CN(c2c(O)cc3c(c2F)CN(CC2CNC2)CC3)S(=O)(=O)N1 [Compound 165]	7.00 to 8.00
< 7.00	O=C1CN(c2c(O)cc3c(c2F)CN(Cc2ccccn2)CC3)S(=O)(=O)N1 [Compound 184]	< 7.00
7.00 to 8.00	O=C1CN(c2c(O)cc3c(c2F)CN(CCCC2CCOCC2)CC3)S(=O)(=O)N1 [Compound 196]	7.00 to 8.00
> 9.00	O=C1CN(c2c(O)cc3c(c2F)C[C@H](NCCC2CCCC2)CC3)S(=O)(=O)N1 [Compound 200, 5-{(7R)-7-[(2-cyclopentylethyl)amino]-1-fluoro-3-hydroxy-5,6,7,8-tetrahydronaphthalen-2-yl}-1λ^6,2,5-thiadiazolidine-1,1,3-trione]	> 9.00
> 9.00	O=C1CN(c2c(O)cc3c(c2F)C[C@H](NCCC2CCC2)CC3)S(=O)(=O)N1 [Compound 201]	> 9.00
8.00 to 9.00	O=C1CN(c2c(O)cc3c(c2F)C[C@H](NCCC2CC(F)(F)C2)CC3)S(=O)(=O)N1 [Compound 202]	> 9.00
8.00 to 9.00	CCC(CC)CCN[C@@H]1CCc2cc(O)c(N3CC(=O)NS3(=O)=O)c(F)c2C1 [Compound 204]	> 9.00
7.00 to 8.00	CC(C)CCNC(=O)N1CCc2cc(O)c(N3CC(=O)NS3(=O)=O)c(F)c2C1 [Compound 205]	8.00 to 9.00
7.00 to 8.00	O=C1CN(c2c(O)cc3c(c2F)CN(CCCc2cccnc2)CC3)S(=O)(=O)N1 [Compound 207]	7.00 to 8.00
< 7.00	Cc1nn(C)c(C)c1CN1CCc2cc(O)c(N3CC(=O)NS3(=O)=O)c(F)c2C1 [Compound 213]	< 7.00
7.00 to 8.00	CC(C)CCN1CCc2cc(O)c(N3CC(=O)NS3(=O)=O)c(F)c2C1 [Compound 220]	7.00 to 8.00
8.00 to 9.00	CC(C)(C)OC(=O)N1CCc2cc(O)c(N3CC(=O)NS3(=O)=O)c(F)c2C1 [Compound 221]	7.00 to 8.00

The next lines start with the molecule.

Structure (SMILES)	pIC50 [2]	pIC50 [1]
CC(C)CCC(=O)N1CCc2cc(O)c(N3CC(=O)NS3(=O)=O)c(F)c2C1 [Compound 144]	7.00 to 8.00	8.00 to 9.00
O=C1CN(c2c(O)cc3c(c2F)CC(NCc2ccccn2)CC3)S(=O)(=O)N1 (stereo not shown) [Compound 155]	7.00 to 8.00	7.00 to 8.00
CCCCC(=N)N1CCc2cc(O)c(N3CC(=O)NS3(=O)=O)c(F)c2C1 [Compound 158]	< 7.00	7.00 to 8.00
O=C1CN(c2c(O)cc3c(c2F)CN(CCCCCC(F)(F)F)CC3)S(=O)(=O)N1 [Compound 161]	7.00 to 8.00	8.00 to 9.00
O=C1CN(c2c(O)cc3c(c2F)CN(CC2CC(F)(F)C2)CC3)S(=O)(=O)N1 [Compound 162]	7.00 to 8.00	8.00 to 9.00
O=C1CN(c2c(O)cc3c(c2F)CN(C2CNC2)CC3)S(=O)(=O)N1 [Compound 163]	< 7.00	7.00 to 8.00
CC(C)NCCN1CCc2cc(O)c(N3CC(=O)NS3(=O)=O)c(F)c2C1 [Compound 164]	< 7.00	7.00 to 8.00
O=C1CN(c2c(O)cc3c(c2F)CN(CC2CC4(CC4)C2)CC3)S(=O)(=O)N1 [Compound 168]	7.00 to 8.00	7.00 to 8.00
CC(C)(O)CCN1CCc2cc(O)c(N3CC(=O)NS3(=O)=O)c(F)c2C1 [Compound 170]	< 7.00	7.00 to 8.00
O=C1CN(c2c(O)cc3c(c2F)CN(CCC2CCCCC2)CC3)S(=O)(=O)N1 [Compound 179]	7.00 to 8.00	7.00 to 8.00
CC(C)C1CN(C2CCc3cc(O)c(N4CC(=O)NS4(=O)=O)c(F)c3C2)CCO1 (stereo not shown) [Compound 181]	8.00 to 9.00	8.00 to 9.00
O=C1CN(c2c(O)cc3c(c2F)CN(c2ccccn2)CC3)S(=O)(=O)N1 [Compound 191]	7.00 to 8.00	7.00 to 8.00
O=C1CN(c2c(O)cc3c(c2F)CN(CCC2CC(F)(F)C2)CC3)S(=O)(=O)N1 [Compound 192]	7.00 to 8.00	7.00 to 8.00
O=C1CN(c2c(O)cc3c(c2F)CN(CCN2CCCC2)CC3)S(=O)(=O)N1 [Compound 193]	7.00 to 8.00	< 7.00
Cc1n[nH]c(C)c1CCN1CCc2cc(O)c(N3CC(=O)NS3(=O)=O)c(F)c2C1 [Compound 194]	8.00 to 9.00	8.00 to 9.00
N[C@@H]1CCc2cc(O)c(N3CC(=O)NS3(=O)=O)c(F)c2C1 [Compound 198]	< 7.00	7.00 to 8.00
CC(C)CNC(=O)N1CCc2cc(O)c(N3CC(=O)NS3(=O)=O)c(F)c2C1 [Compound 206]	7.00 to 8.00	7.00 to 8.00
Cc1noc(C)c1CN1CCc2cc(O)c(N3CC(=O)NS3(=O)=O)c(F)c2C1 [Compound 208]	7.00 to 8.00	7.00 to 8.00
Cc1nn(C)c(C)c1CCN1CCc2cc(O)c(N3CC(=O)NS3(=O)=O)c(F)c2C1 [Compound 209]	8.00 to 9.00	8.00 to 9.00
O=C1CN(c2c(O)cc3c(c2F)CN(CCc2cncnc2)CC3)S(=O)(=O)N1 [Compound 210]	7.00 to 8.00	< 7.00
Cc1noc(C)c1CCN1CCc2cc(O)c(N3CC(=O)NS3(=O)=O)c(F)c2C1 [Compound 211]	8.00 to 9.00	8.00 to 9.00
Cc1n[nH]c(C)c1CN1CCc2cc(O)c(N3CC(=O)NS3(=O)=O)c(F)c2C1 [Compound 212]	< 7.00	< 7.00
O=C1CN(c2c(O)cc3c(c2F)CN(CCC2CCOCC2)CC3)S(=O)(=O)N1 [Compound 214]	7.00 to 8.00	7.00 to 8.00
COCCN1CCc2cc(O)c(N3CC(=O)NS3(=O)=O)c(F)c2C1 [Compound 216]	< 7.00	< 7.00
COCCCN1CCc2cc(O)c(N3CC(=O)NS3(=O)=O)c(F)c2C1 [Compound 217]	< 7.00	< 7.00
NCCCN1CCc2cc(O)c(N3CC(=O)NS3(=O)=O)c(F)c2C1 [Compound 218]	7.00 to 8.00	< 7.00
O=C1CN(c2c(O)cc3c(c2F)CN(CCCC2CCNCC2)CC3)S(=O)(=O)N1 [Compound 219]	7.00 to 8.00	7.00 to 8.00
Cc1nn(C)c(C)c1CN1CC(N2CCc3cc(O)c(N4CC(=O)NS4(=O)=O)c(F)c3C2)C1 [Compound 224]	7.00 to 8.00	< 7.00
